{
  "source": "patent US8445712B2",
  "about": "“Phospholipid derivative and pH-responsive liposomes” (NOF Corporation, priority 2009, dated 2013)",
  "assay": "Measurement test of pH-sensitiveness of liposome (release of enclosed pyranine/DPX at a given pH)",
  "type": "physicochemical",
  "details": "Example 15 (Table 2) compared with Example 19 (Table 3); 11 mol % derivative in EYPC liposome",
  "description": "Using the liposomes prepared in Examples 5-13 and Comparative Example 1, pH-sensitiveness measurement tests were performed.\nTo the liposome solution obtained in Example 5 was added phosphate buffered saline (hereinafter to be indicated as “PBS”) to adjust the lipid concentration of the liposome to 1.6 mmol/l. The PBS (2469 μl) adjusted to a given pH with 1N hydrochloric acid was placed in a quartz cell, a liposome dispersion (31 μl) was added thereto at 37° C. to adjust the lipid concentration to 20 μmol/l. After incubation at 37° C. for 15 min, fluorescence intensity (F15min) was measured. In addition, 10% aqueous Triton X-100 (manufactured by Sigma-Aldrich Japan Co. Ltd.) solution (25 μl) was added thereto, and the mixture was stirred, and the fluorescence intensity (Fmax) was measured.\nThe release (%) was calculated by the following formula.\n[formula] F15min: fluorescence intensity at 15 min after liposome addition F0: fluorescence intensity at t=0 by measurement with PBS at pH 7.4 Fmax: fluorescence intensity after addition of Triton",
  "data": [
    {"substance": "Octaglycerolglutaryl Distearylphosphatidylethanolamine 1,2-Cyclohexanedicarboxylic Acid Derivative [DSPE-CHexPG8G]", "values": [
      {"measurement": "pH sensitive property (comparison)", "result": "stronger pH sensitive property"}
    ]}
  ]
}
